What follows are molecules tested against T1, h-GABAA α2β2γ1 (Homo sapiens, UniProt P47869+Q8N1C3) (assay: Radioligand binding assay, [3H]RO7239181 competition, HEK293F membranes).
T1 sequence (P47869 29-451): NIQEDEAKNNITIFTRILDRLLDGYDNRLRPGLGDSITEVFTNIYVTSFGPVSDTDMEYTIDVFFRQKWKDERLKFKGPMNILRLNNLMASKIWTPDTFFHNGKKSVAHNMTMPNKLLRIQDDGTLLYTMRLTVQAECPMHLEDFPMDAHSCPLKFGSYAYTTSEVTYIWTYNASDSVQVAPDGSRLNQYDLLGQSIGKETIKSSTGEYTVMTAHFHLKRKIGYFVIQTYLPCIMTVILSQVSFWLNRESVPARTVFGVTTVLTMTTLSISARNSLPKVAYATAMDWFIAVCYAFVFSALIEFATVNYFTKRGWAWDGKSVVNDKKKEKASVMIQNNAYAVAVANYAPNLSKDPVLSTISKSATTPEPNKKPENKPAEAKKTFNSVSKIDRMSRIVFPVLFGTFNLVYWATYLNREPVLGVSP
T1 sequence (P47870 25-512 partner limits assumed): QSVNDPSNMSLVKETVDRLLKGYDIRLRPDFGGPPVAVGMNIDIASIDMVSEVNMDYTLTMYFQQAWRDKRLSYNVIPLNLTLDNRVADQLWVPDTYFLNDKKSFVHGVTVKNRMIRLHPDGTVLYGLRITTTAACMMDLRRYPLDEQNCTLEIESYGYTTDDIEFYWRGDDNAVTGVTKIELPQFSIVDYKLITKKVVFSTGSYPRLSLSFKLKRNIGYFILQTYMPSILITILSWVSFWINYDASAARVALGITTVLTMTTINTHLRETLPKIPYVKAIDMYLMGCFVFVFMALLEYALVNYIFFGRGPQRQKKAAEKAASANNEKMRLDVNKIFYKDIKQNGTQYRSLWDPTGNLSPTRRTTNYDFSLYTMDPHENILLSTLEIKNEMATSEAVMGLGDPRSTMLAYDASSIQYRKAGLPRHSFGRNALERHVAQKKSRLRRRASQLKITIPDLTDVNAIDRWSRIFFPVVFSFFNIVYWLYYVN
T1 sequence (Q8N1C3 36-465): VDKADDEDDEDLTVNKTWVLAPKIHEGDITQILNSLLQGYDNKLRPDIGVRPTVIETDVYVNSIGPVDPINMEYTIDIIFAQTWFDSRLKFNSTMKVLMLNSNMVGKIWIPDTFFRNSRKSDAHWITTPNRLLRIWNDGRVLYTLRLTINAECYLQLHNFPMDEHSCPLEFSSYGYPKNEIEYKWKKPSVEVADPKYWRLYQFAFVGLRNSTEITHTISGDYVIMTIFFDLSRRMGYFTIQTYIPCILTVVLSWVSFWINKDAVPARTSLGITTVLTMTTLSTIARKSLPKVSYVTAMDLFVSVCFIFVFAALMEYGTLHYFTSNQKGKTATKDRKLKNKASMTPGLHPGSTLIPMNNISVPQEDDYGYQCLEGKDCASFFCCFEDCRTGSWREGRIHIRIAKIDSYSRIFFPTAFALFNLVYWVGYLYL
Set-up: signal peptide of human GABAA α5 subunit (Met1 to Ser31), replacing the α2 signal peptide (N); expressed in transfected cells; host or cells: HEK293F cells (ThermoFisher R79007), membranes
Procedure: The affinity of compounds at GABAA γ1 subunit-containing receptors was measured by competition for [^3H]RO7239181 (67.3 Ci/mmol; Roche) binding to membranes from HEK293F cells (ThermoFisher R79007) expressing human (transiently transfected) receptors of composition […], α2β2γ1, α1β2γ1.
Harvested pellets from HEK293F cells expressing the different GABAA receptor subtypes were resuspended in Mannitol Buffer pH 7.2-7.4 (Mannitol 0.29M, Triethylamine 10 mM, Acetic acid 10 mM, EDTA 1 mM plus protease inhibitors (20 tablets Complete, Roche Diagnostics Cat. No. 05 056 489 001 per liter)), washed two times and then resuspended at 1:10 to 1:15 dilution in the same buffer. Cell disruption was performed by stirring the suspension in a Parr vessel #4637 at 435 psi for 15 minutes, and then the suspensions were centrifuged at 1000×g for 15 minutes at 4° C. (Beckman Avanti J-HC; rotor JS-4.2). The supernatant (S1) was transferred in a 21 Schott flask and the pellet (P1) was resuspended with Mannitol Buffer up to 175 ml. The resuspended pellet was transferred into a 250 ml Corning centrifugal beaker and centrifuged at 1500×g for 10 minutes at 4° C. (Beckman Avanti J-HC; rotor JS-4.2). The supernatant (S1) was then transferred in the 21 Schott flask and the pellet was discarded. The supernatants (S1) were centrifuged in 500 ml Beckman polypropylene centrifugal beaker at 15′000×g for 30 minutes at 4° C. (Beckman Avanti J-20 XP; rotor JLA-10.500). The pellet (P2) was resuspended with Mannitol Buffer 1:1 and frozen at −80° C. The supernatant (S2) was centrifuged in 100 ml Beckman polypropylene centrifugal tubes at 48000×g for 50 minutes at 4° C. (Beckman Avanti J-20 XP; rotor JA-18). The supernatant (S3) was discarded and the pellet (P3) was resuspended with 1:1 Mannitol Buffer. The P2 and P3 protein concentration was determined with the BIORAD Standard assay method with bovine serum albumin as standard and measured on the NANO-Drop 1000. The membrane suspension was aliquots (500 μl per tube) and stored at −80° C. until required. Membrane homogenates were resuspended and polytronised (Polytron PT1200E Kinematica AG) in Potassium Phosphate 10 mM, KCl 100 mM binding buffer at pH 7.4 to a final assay concentration determined with a previous experiment.
Assays were incubated to equilibrium for 1 hour at 4° C. and then, membranes were filtered onto unifilter (96-well white microplate with bonded GF/C filters preincubated 20-50 minutes in 0.3% Polyethylenimine) with a Filtermate 196 harvester (Packard BioScience) and washed 4 times with cold Potassium Phosphate 10 mM pH 7.4, KCl 100 mM binding buffer. After drying, filter-retained radioactivity was detected by liquid scintillation counting. Ki values were calculated using Excel-Fit (Microsoft) and are the means of two determinations.

With `Cc1nnc2n1-c1ccc(Br)c(Cl)c1C(c1c(F)cccc1F)=NC2` [Example 1, 8-bromo-7-chloro-6-(2,6-difluorophenyl)-1-methyl-4H-[1,2,4]triazolo[4,3-a][1,4]benzodiazepine] as the molecule, how does the Ki read?
Its Ki is 0.008 µM.

With `Fc1ccccc1C1=NCc2nnc(C3CC3)n2-c2ccc(Br)c(Cl)c21` [Example 2, 8-bromo-7-chloro-1-cyclopropyl-6-(2-fluorophenyl)-4H-[1,2,4]triazolo[4,3-a][1,4]benzodiazepine] as the molecule, how does the Ki read?
The Ki was 0.0479 µM.

For `Fc1ccccc1C1=NCc2nnc(-c3cccnn3)n2-c2ccc(Br)c(Cl)c21` [Example 3, 8-bromo-7-chloro-6-(2-fluorophenyl)-1-pyridazin-3-yl-4H-[1,2,4]triazolo[4,3-a][1,4]benzodiazepine], which Ki is on record?
The Ki was 0.0088 µM.

`Cc1nnc2n1-c1ccc(Cl)c(Cl)c1C(c1ccccc1F)=NC2` [Example 4, 7,8-dichloro-6-(2-fluorophenyl)-1-methyl-4H-[1,2,4]triazolo[4,3-a][1,4]benzodiazepine] was tested. Which Ki did it give?
The Ki was 0.0658 µM.

Which Ki does the source give for `Cc1nnc2n1-c1ccc(Cl)c(Cl)c1C(c1c(F)cccc1F)=NC2` [Example 5, 7,8-dichloro-6-(2,6-difluorophenyl)-1-methyl-4H-[1,2,4]triazolo[4,3-a][1,4]benzodiazepine] here?
The Ki was 0.0066 µM.

With `Cc1nnc2n1-c1ccc(C3CC3)c(Cl)c1C(c1c(F)cccc1F)=NC2` [Example 6, 7-chloro-8-cyclopropyl-6-(2,6-difluorophenyl)-1-methyl-4H-[1,2,4]triazolo[4,3-a][1,4]benzodiazepine] as the molecule, how does the Ki read?
The Ki was 0.0933 µM.

For `Fc1cccc(F)c1C1=NCc2nncn2-c2ccc(Br)c(Cl)c21` [Example 7, 8-bromo-7-chloro-6-(2,6-difluorophenyl)-4H-[1,2,4]triazolo[4,3-a][1,4]benzodiazepine], which Ki is on record?
Its Ki is 0.0085 µM.

Which Ki does the source give for `Fc1ccccc1C1=NCc2nncn2-c2ccc(Br)c(Cl)c21` [Example 8, 8-bromo-7-chloro-6-(2-fluorophenyl)-4H-[1,2,4]triazolo[4,3-a][1,4]benzodiazepine] here?
Its Ki is 0.0476 µM.

With `O=c1[nH]nc2n1-c1ccc(Cl)c(Cl)c1C(c1c(F)cccc1F)=NC2` [Example 9, 7,8-dichloro-6-(2,6-difluorophenyl)-2,4-dihydro-[1,2,4]triazolo[4,3-a][1,4]benzodiazepin-1-one] as the molecule, how does the Ki read?
The Ki was 0.008 µM.

For `Fc1ccccc1C1=NCc2nnc(-c3cccnn3)n2-c2ccc(Cl)c(Cl)c21` [Example 10, 7,8-dichloro-6-(2-fluorophenyl)-1-pyridazin-3-yl-4H-[1,2,4]triazolo[4,3-a][1,4]benzodiazepine], which Ki is on record?
The Ki was 0.0095 µM.

Which Ki does the source give for `Fc1cccc(F)c1C1=NCc2nnc(C3CCOCC3)n2-c2ccc(Cl)c(Cl)c21` [Example 11, 7,8-dichloro-6-(2,6-difluorophenyl)-1-tetrahydropyran-4-yl-4H-[1,2,4]triazolo[4,3-a][1,4]benzodiazepine] here?
The Ki was 0.0491 µM.

With `Fc1cccc(F)c1C1=NCc2nnc(-c3ccncn3)n2-c2ccc(Cl)c(Cl)c21` [Example 12, 7,8-dichloro-6-(2,6-difluorophenyl)-1-pyrimidin-4-yl-4H-[1,2,4]triazolo[4,3-a][1,4]benzodiazepine] as the molecule, how does the Ki read?
The Ki was 0.0104 µM.

With `O=c1[nH]nc2n1-c1ccc(Br)c(Cl)c1C(c1c(F)cccc1F)=NC2` [Example 13, 8-bromo-7-chloro-6-(2,6-difluorophenyl)-2,4-dihydro-[1,2,4]triazolo[4,3-a][1,4]benzodiazepin-1-one] as the molecule, how does the Ki read?
Its Ki is 0.0062 µM.

For `Fc1cccc(F)c1C1=NCc2nnc(-c3cccnn3)n2-c2ccc(Cl)c(Cl)c21` [Example 14, 7,8-dichloro-6-(2,6-difluorophenyl)-1-pyridazin-3-yl-4H-[1,2,4]triazolo[4,3-a][1,4]benzodiazepine], which Ki is on record?
Its Ki is 0.0034 µM.

Which Ki does the source give for `Fc1cccc(F)c1C1=NCc2nncn2-c2ccc(Cl)c(Cl)c21` [Example 15, 7,8-dichloro-6-(2,6-difluorophenyl)-4H-[1,2,4]triazolo[4,3-a][1,4]benzodiazepine] here?
Its Ki is 0.0087 µM.

How did the Ki turn out when `Cc1ccc2c(c1Cl)C(c1c(F)cccc1F)=NCc1n[nH]c(=O)n1-2` [Example 16, 7-chloro-6-(2,6-difluorophenyl)-8-methyl-2,4-dihydro-[1,2,4]triazolo[4,3-a][1,4]benzodiazepin-1-one] was run?
Its Ki is 0.0265 µM.

With `Cc1ccc2c(c1Cl)C(c1c(F)cccc1F)=NCc1nncn1-2` [Example 17, 7-chloro-6-(2,6-difluorophenyl)-8-methyl-4H-[1,2,4]triazolo[4,3-a][1,4]benzodiazepine] as the molecule, how does the Ki read?
The Ki was 0.0198 µM.

Which Ki does the source give for `Fc1ccccc1C1=NCc2nnc(-c3ccncn3)n2-c2ccc(Cl)c(Cl)c21` [Example 18, 7,8-dichloro-6-(2-fluorophenyl)-1-pyrimidin-4-yl-4H-[1,2,4]triazolo[4,3-a][1,4]benzodiazepine] here?
The Ki was 0.0216 µM.

Which Ki does the source give for `COCCc1nnc2n1-c1ccc(Cl)c(Cl)c1C(c1c(F)cccc1F)=NC2` [Example 19, 7,8-dichloro-6-(2,6-difluorophenyl)-1-(2-methoxyethyl)-4H-[1,2,4]triazolo[4,3-a][1,4]benzodiazepine] here?
Its Ki is 0.026 µM.

Which Ki does the source give for `Cc1ccc2c(c1Cl)C(c1c(F)cccc1F)=NCc1nnc(C)n1-2` [Example 20, 7-chloro-6-(2,6-difluorophenyl)-1,8-dimethyl-4H-[1,2,4]triazolo[4,3-a][1,4]benzodiazepine] here?
The Ki was 0.0238 µM.

`CC(F)(F)c1ccc2c(c1Cl)C(c1c(F)cccc1F)=NCc1nncn1-2` [Example 21, 7-chloro-8-(1,1-difluoroethyl)-6-(2,6-difluorophenyl)-4H-[1,2,4]triazolo[4,3-a][1,4]benzodiazepine] was tested. Which Ki did it give?
The Ki was 0.052 µM.

Which Ki does the source give for `Cc1nnc2n1-c1ccc(C(C)(F)F)c(Cl)c1C(c1c(F)cccc1F)=NC2` [Example 22, 7-chloro-8-(1,1-difluoroethyl)-6-(2,6-difluorophenyl)-1-methyl-4H-[1,2,4]triazolo[4,3-a][1,4]benzodiazepine] here?
Its Ki is 0.0374 µM.

For `Fc1cccc(F)c1C1=NCc2nncn2-c2ccc(C(F)F)c(Cl)c21` [Example 23, 7-chloro-8-(difluoromethyl)-6-(2,6-difluorophenyl)-4H-[1,2,4]triazolo[4,3-a][1,4]benzodiazepine], which Ki is on record?
The Ki was 0.0545 µM.

From US20230141603A1, “BENZODIAZEPINE DERIVATIVES AS GABA A GAMMA1 PAM” (Hoffmann-La Roche Inc., priority 2021, published 2023)
